According to US20260355180A1, “COMPOSITIONS AND METHODS FOR SPLICEOSOME-TARGETED THERAPIES” (Institute for Cancer Research d/b/a The Research Institute …, priority 2022, published 2026):
Entries after “also recorded” stand apart in the source; their conditions may differ.

Columns and labels:
SCLC cell lines = test: Western blot of cleaved-PARP, pH2AX, ZBP1 and RIPK1 (FIG. 4C); type: cell-based; settings: 48 hours of PlaB
Source text: FIG. 4A-4C: SF3B1 perturbation increases dsRNA and Z-nucleic acid levels in treated cells. […] (FIG. 4B) Quantification of A-RNA and Z-Nucleic acids. (FIG. 4C) Western blot showing induction of cleaved-PARP, pH2AX, and ZBP1, and the reduction of RIPK1 protein levels. Plots of signal intensity are mean±SEM, two-tailed unpaired Student's t test **p<0.01, ****p<0.0001.

MEF Flag-ZBP1 cells = test: A-RNA and Z-NA accumulation in MEF Flag-ZBP1; type: cell-based, mouse; settings: SF3B1 inhibition
H446 cells = test: MAVS knock out rescue of PlaB-mediated cell death, H446; type: cell-based, human; settings: MAVS KO H446; data not shown
Source text: Currently, ZBP1 and ADAR1 are the only two known proteins harbor Zα and interact with Z-NAs^104-109.

RPPM631 cells = test: A-RNA and Z-NA accumulation in RPPM631 cells; type: cell-based, mouse; settings: 25 nM PLAB
Method: Additionally, SF3B1 inhibition was directly compared to SF3B1 knockout in the mouse SCLC cell line RPPM631. RPPM631 cells were treated with 25 nM PLAB and analyzed for their accumulation of Z-NA and A-RNA. […] (FIG. 12) Next, SF3B1-KO RPPM631 cells were generated and analyzed using immunc-fluorescence technique.

pTBK1 protein = test: Western blot of pTBK1; type: cell-based
Source text: FIG. 7: Western Blot analysis showing pTBK1 protein depletion.
Based on the publications and our findings, TNF sensing can at least partially rescue spliceosome perturbation mediated cell death.

H82 KO cells = test: CytoToxicity of PlaB in TNFR1-, TRADD-, FADD-, CASP8-KO H82 cells (trypan blue); type: cell-based; settings: 2.5 nM PlaB, 18 hrs
Source text: […]: CytoToxicity analysis of PlaB in TNFR1-KO and TRADD-KO H82 cells […] and H446 cells (FIG. 16B). CytoToxicity analysis of PlaB in FADD-KO and CASP8-KO H82 cells (FIG. 16C) and H446 cells (FIG. 16D). EV refers to cells treated with an empty vector.
Since RIPK1 mediated apoptosis can be triggered by TNF110, TNFR1 and TRADD-KO SCLC cell lines are generated herein for subsequent studies. Here, we utilize CRISPR-Cas9 KO to effectively knockout TNFR1 and TRADD in SCLC cells. To confirm depletion of TNFR1 and TRADD proteins, cell lysates are collected and western blot analysis is performed. The following experiments are performed using the TNFR1 and TRADD-KO SCLC cells generated above.
H82 and H446 WT and TNFR1 and TRADD-KO cells generated above are treated with DMSO or 2.5 nM PlaB for 18 hrs. Then, the cells are counted using 0.4% trypan blue solution assessing total viable cells and the percent of cell survived with the H82 and H446 WT cells is compared. (FIG. 15A-15B) This allows us to confirm whether TNF is partially or fully responsible for PlaB-mediated cell death in SCLC cell lines.
Additionally, we analyzed the role played by FADD and CAPS8 in rescuing H82 and H446 cells from PlaB induced toxicity. Using the methods described above for the generation of TNFR1 and TRADD-KO cells, H82 and H446 FADD-KO cells and H82 and H446 CASP8-KO cells were generated. These cells were then treated with DMSO or 2.5 nM PlaB for 18 hrs and compared to WT H82 and H446 cells. […] (FIG. 15C and FIG. 15D)

MEF ΔZBP1 cells [1] = test: Survival of PlaB treated MEF ΔZBP1; type: cell-based, mouse
Method: FIG. 16: Analysis of the effect of spliceosome inhibition on necroptosis in WT MEF cells. EV refers to cells treated with an empty vector.
(§1) Since induction of Z-nAs can result in ZBP1-dependent necroptosis, we analyzed induction of necroptosis in necroptotic competent MEFs using spliceosome inhibition. […] We also determined that MEFs ΔZBP1, WT, and Flag-ZBP1 cells treated with PlaB began dying within 24hours after treatment. With MEF Flag-ZBP1 cells showing only 20% survival after 24 hours (FIG. 16).

H446 SCLC cells [2] = test: IFN response by rRT-qPCR, H446; type: cell-based, human; settings: dose-dependent
Source text: FIG. 3A-3D: SF3B1 inhibition induces a potent IFN response and increases expression of IFN-regulated proteins. […] Mean±SEM, two-tailed unpaired Student's t test *p<0.05, **p<0.01, ***p<0.001, ****p<0.0001.
We also observed that SF3B1 inhibition triggers robust anti-tumor response and upregulates IFN-β, IFN-γ, and IFN-responsive genes by real-time reverse-transcription quantitative polymerase chain reaction (rRT-qPCR) in H446 and H82 cells (FIGS. 3A and 3B). […] These observations indicate that spliceosome inhibition is useful as a targeted therapy for SCLCs.

MEF ΔZBP1 cells [3] = test: A-RNA and Z-NA accumulation in MEF ΔZBP1; type: cell-based, mouse
Method: FIG. 5A-5E: SF3B1 perturbation upregulates A-RNA and Z-nucleic acids in MEFs. (FIG. 5A) 5 nM of PlaB induces A-RNA and Z-Nucleic acids in ΔZBP1 MEF cells. (FIG. 5B) Quantification of A-RNA and Z-Nucleic acids. […] Plots of signal intensity are mean±SEM, two-tailed unpaired Student's t test *p<0.05, ***p<0.001, ****p<0.0001. 18 hours of PlaB treatment for IF, WB and rescue experiments. IF: 5 nM PlaB, WB and rescue experiments: 2.5 nM PlaB.
as §1

MEF ΔZα cells = test: A-RNA and Z-NA accumulation in MEF ΔZα; type: cell-based, mouse; settings: SF3B1 inhibition
H446 SCLC cells [4] = test: Cell survival after PlaB treatment, H446; type: cell-based, human
Method: FIG. 2A) SCLC cell lines (H446 and H82) and immortalized fibroblasts (FC1010 and HS68) cell survival curves after 72 hours of PlaB treatment. FIG. 2B) RIPK1 depletion rescues H82 and H446 cell survival after 18 hours of PlaB treatment. FIG. 2C) Western blot showing RIPK1 protein depletion. Mean±SEM, Welch's t test *p<0.05, **p<0.01.
Cancer deregulates splicing^31,32, and we hypothesized that hyper-proliferative SCLCs are dependent on splicing machineries for increased tumorigenicity^90.

`CCC(O)C(C)C1OC1CC(C)C=CC=C(C)C1OC(=O)CC(O)CCC(C)(O)C(OC(C)=O)C=CC1C` (stereo not drawn) [PlaB, Pladienolide B] was tested, and the RIPK1 protein level (SCLC cell lines) was “dropped considerably”, the ZBP1 protein (SCLC cell lines) was “increased; also recorded: slight increase” and the cleaved-PARP protein (SCLC cell lines) was “increased”. For the same molecule, the pH2AX protein (SCLC cell lines) was “increased”, the “A-RNA and Z-NA accumulation” value (MEF Flag-ZBP1 cells) was “accumulation” and the “rescue of PlaB-mediated cell death by MAVS knock out” value (H446 cells) was “only minimally rescue”. For the same molecule, the A-RNA accumulation (RPPM631 cells) was “increase”, the Z-NA accumulation (RPPM631 cells) was “increase” and the pTBK1 protein (pTBK1 protein) was “dramatic reduction”. The “rescue from PlaB toxicity by CASP8-KO” value (H82 KO cells; H82 CASP8-KO) was “effectively rescued”, the “rescue from PlaB toxicity by FADD-KO” value (H82 KO cells; H82 FADD-KO) was “effectively rescued” and the “rescue from PlaB toxicity by TNFR1-KO” value (H82 KO cells; H82 TNFR1-KO) was “effectively rescued”. For the same molecule, the “rescue from PlaB toxicity by TRADD-KO” value (H82 KO cells; H82 TRADD-KO) was “effectively rescued”, the “time after treatment at which cells began dying” value (MEF ΔZBP1 cells [1]) was at most 24 h and the IFN response (H446 SCLC cells [2]) was “induces potent IFN response”. For the same molecule, the A-RNA induction (MEF ΔZBP1 cells [3]; 5 nM PlaB, 18 hours) was “induces”, the Z-Nucleic acids induction (MEF ΔZBP1 cells [3]; 5 nM PlaB, 18 hours) was “induces” and the “A-RNA and Z-NA accumulation” value (MEF ΔZBP1 cells [3]; SF3B1 inhibition) was “accumulation”. For the same molecule, the “A-RNA and Z-NA accumulation” value (MEF ΔZα cells) was “accumulation”, the cell survival (H446 SCLC cells [4]; 72 hours of PlaB, H446) was “drastically reduces cell survival; also recorded: dramatically reduces SCLC cell survival” and the “sensitivity to SF3B1 inhibition” value (H446 SCLC cells [4]; nanomolar concentration of PlaB) was “particularly sensitive”.
